Reference: ChEMBL document CHEMBL1154406, “Can the Etest correctly determine the MICs of beta-lactam and cephalosporin antibiotics for beta-lactamase-negative ampicillin-resistant Haemophilus influenzae?” (2007)
In brackets after ≈: the same amount, converted by molar mass.

Legend:
Type in all cases: functional
Haemophilus influenzae [1] = experiment: Antimicrobial activity against beta-lactamase positive ampicillin-resistant Haemophilus influenzae by broth microdilution method
Haemophilus influenzae [2] = experiment: Antimicrobial activity against beta-lactamase negative ampicillin-resistant Haemophilus influenzae by E-test
Haemophilus influenzae [3] = experiment: Antimicrobial activity against beta-lactamase positive amoxicillin/clavulanate-resistant Haemophilus influenzae by broth microdilution method
Haemophilus influenzae [4] = experiment: Antimicrobial activity against beta-lactamase negative ampicillin-susceptible Haemophilus influenzae by E-test
Haemophilus influenzae [5] = experiment: Antimicrobial activity against beta-lactamase positive amoxicillin/clavulanate-resistant Haemophilus influenzae by E-test
Haemophilus influenzae [6] = experiment: Antimicrobial activity against beta-lactamase positive ampicillin-resistant Haemophilus influenzae by E-test
Haemophilus influenzae [7] = experiment: Antimicrobial activity against beta-lactamase negative ampicillin-susceptible Haemophilus influenzae by broth microdilution method
Haemophilus influenzae [8] = experiment: Antimicrobial activity against beta-lactamase negative ampicillin-resistant Haemophilus influenzae by broth microdilution method
Haemophilus influenzae [9] = experiment: Antimicrobial activity against Haemophilus influenzae expressing mutant ftsI gene

SMILES	MIC (Haemophilus influenzae [1])	MIC (Haemophilus influenzae [2])	MIC (Haemophilus influenzae [3])	MIC (Haemophilus influenzae [4])	MIC (Haemophilus influenzae [5])	MIC (Haemophilus influenzae [6])	MIC (Haemophilus influenzae [7])	MIC (Haemophilus influenzae [8])	MIC (Haemophilus influenzae [9])
CC1(C)S[C@@H]2[C@H](NC(=O)[C@H](N)c3ccccc3)C(=O)N2[C@H]1C(=O)O [AMPICILLIN]	32 µg/mL (≈ 91.6 µM)	1 µg/mL (≈ 2.86 µM)	256 µg/mL	0.25 µg/mL (≈ 0.715 µM)	256 µg/mL	4 µg/mL (≈ 11.4 µM)	0.25 µg/mL (≈ 0.715 µM)	1 µg/mL (≈ 2.86 µM)	–
N[C@@H](C(=O)N[C@@H]1C(=O)N2C(C(=O)O)=C(Cl)CS[C@H]12)c1ccccc1 [CEFACLOR ANHYDROUS]	–	–	–	–	–	–	–	–	4 µg/mL (≈ 10.9 µM)
C=CC1=C(C(=O)O)N2C(=O)[C@@H](NC(=O)/C(=N\OCC(=O)O)c3csc(N)n3)[C@H]2SC1 [CEFIXIME]	–	–	–	–	–	–	–	–	0.03 µg/mL (≈ 0.0662 µM)
CO/N=C(\C(=O)N[C@@H]1C(=O)N2C(C(=O)O)=C(CSc3nc(=O)c(O)nn3C)CS[C@H]12)c1csc(N)n1 [CEFTRIAXONE]	–	0.012 µg/mL (≈ 0.0216 µM)	–	0.008 µg/mL (≈ 0.0144 µM)	0.25 µg/mL	0.008 µg/mL (≈ 0.0144 µM)	< 0.06 µg/mL	0.06 µg/mL (≈ 0.108 µM)	–
CO/N=C(\C(=O)N[C@@H]1C(=O)N2C(C(=O)O)=C(COC(N)=O)CS[C@H]12)c1ccco1 [CEFUROXIME]	–	–	–	–	–	–	–	–	0.5 µg/mL (≈ 1.18 µM)
C[C@H]1COc2c(N3CCN(C)CC3)c(F)cc3c(=O)c(C(=O)O)cn1c23.C[C@H]1COc2c(N3CCN(C)CC3)c(F)cc3c(=O)c(C(=O)O)cn1c23.O [LEVOFLOXACIN]	–	< 0.016 µg/mL	–	< 0.06 µg/mL	–	–	< 0.06 µg/mL	1 µg/mL	–
C[C@@H](O)[C@H]1C(=O)N2C(C(=O)O)=C(S[C@@H]3CN[C@H](C(=O)N(C)C)C3)[C@H](C)[C@H]12 [MEROPENEM]	–	0.125 µg/mL (≈ 0.326 µM)	–	0.064 µg/mL (≈ 0.167 µM)	0.125 µg/mL	0.064 µg/mL (≈ 0.167 µM)	< 0.06 µg/mL	–	–
